Numbers after ± are expanded uncertainties.
Assay: xn = mol fraction of the nth substance listed
Settings: 101 kPa, Liquid; for electrical conductivity: Crison GLP 31+ conductivimeter

CCCCCCn1cc[n+](C)c1.F[B-](F)(F)F [1-hexyl-3-methylimidazolium tetrafluoroborate] + CCO
Settings	electrical conductivity [S/m]	viscosity [mPa·s]
288.15 K, x2 = 0	–	357.5 ± 76
288.15 K, x2 = 0.1	–	207.2 ± 32
288.15 K, x2 = 0.197	–	118.9 ± 11
288.15 K, x2 = 0.298	–	69.02 ± 2.6
288.15 K, x2 = 0.3877	–	48.92 ± 1.5
288.15 K, x2 = 0.4921	–	27.71 ± 0.87
288.15 K, x2 = 0.6009	–	16.92 ± 0.54
288.15 K, x2 = 0.7	–	9.866 ± 0.32
288.15 K, x2 = 0.8002	–	5.545 ± 0.19
288.15 K, x2 = 0.902	–	2.893 ± 0.11
298.15 K, x2 = 0	0.126 ± 0.001	190.9 ± 28
298.15 K, x2 = 0.1	–	119.2 ± 11
298.15 K, x2 = 0.197	–	72.6 ± 3.1
298.15 K, x2 = 0.2439	0.33 ± 0.001	–
298.15 K, x2 = 0.298	–	43.77 ± 1.4
298.15 K, x2 = 0.3877	–	32.06 ± 1
298.15 K, x2 = 0.3981	0.565 ± 0.001	–
298.15 K, x2 = 0.4566	0.66 ± 0.001	–
298.15 K, x2 = 0.4921	–	18.86 ± 0.6
298.15 K, x2 = 0.507	0.769 ± 0.001	–
298.15 K, x2 = 0.5491	0.877 ± 0.001	–
298.15 K, x2 = 0.5861	0.947 ± 0.001	–
298.15 K, x2 = 0.6009	–	12.09 ± 0.39
298.15 K, x2 = 0.6189	1.034 ± 0.001	–
298.15 K, x2 = 0.645	1.083 ± 0.001	–
298.15 K, x2 = 0.6708	1.129 ± 0.001	–
298.15 K, x2 = 0.6938	1.17 ± 0.001	–
298.15 K, x2 = 0.7	–	7.513 ± 0.25
298.15 K, x2 = 0.7145	1.206 ± 0.001	–
298.15 K, x2 = 0.733	1.216 ± 0.001	–
298.15 K, x2 = 0.7495	1.222 ± 0.001	–
298.15 K, x2 = 0.7648	1.244 ± 0.001	–
298.15 K, x2 = 0.7909	1.25 ± 0.001	–
298.15 K, x2 = 0.8002	–	4.191 ± 0.15
298.15 K, x2 = 0.8217	1.225 ± 0.001	–
298.15 K, x2 = 0.8454	1.19 ± 0.001	–
298.15 K, x2 = 0.8637	1.144 ± 0.001	–
298.15 K, x2 = 0.8755	1.109 ± 0.001	–
298.15 K, x2 = 0.8857	1.07 ± 0.001	–
298.15 K, x2 = 0.8946	1.033 ± 0.001	–
298.15 K, x2 = 0.902	–	2.284 ± 0.092
298.15 K, x2 = 0.9042	0.98 ± 0.001	–
298.15 K, x2 = 0.9133	0.929 ± 0.001	–
298.15 K, x2 = 0.9214	0.879 ± 0.002	–
298.15 K, x2 = 0.9267	0.832 ± 0.002	–
298.15 K, x2 = 0.9347	0.778 ± 0.002	–
298.15 K, x2 = 0.9437	0.702 ± 0.002	–
298.15 K, x2 = 0.9526	0.621 ± 0.002	–
298.15 K, x2 = 0.9593	0.57 ± 0.002	–
298.15 K, x2 = 0.9686	0.473 ± 0.002	–
298.15 K, x2 = 0.9758	0.393 ± 0.002	–
298.15 K, x2 = 0.9803	0.331 ± 0.003	–
298.15 K, x2 = 0.9858	0.262 ± 0.003	–
298.15 K, x2 = 0.9892	0.214 ± 0.003	–
298.15 K, x2 = 0.9934	0.147 ± 0.003	–
298.15 K, x2 = 0.996	0.102 ± 0.004	–
298.15 K, x2 = 0.9979	0.0636 ± 0.0037	–
308.15 K, x2 = 0	–	110.3 ± 9.5
308.15 K, x2 = 0.1	–	74.2 ± 3.3
308.15 K, x2 = 0.197	–	46.59 ± 1.4
308.15 K, x2 = 0.298	–	29.55 ± 0.92
308.15 K, x2 = 0.3877	–	22.1 ± 0.69
308.15 K, x2 = 0.4921	–	13.73 ± 0.44
308.15 K, x2 = 0.6009	–	9.004 ± 0.3
308.15 K, x2 = 0.7	–	5.487 ± 0.19
308.15 K, x2 = 0.8002	–	3.278 ± 0.12
308.15 K, x2 = 0.902	–	1.867 ± 0.08
318.15 K, x2 = 0	–	68.5 ± 2.6
318.15 K, x2 = 0.1	–	48.17 ± 1.5
318.15 K, x2 = 0.197	–	32.05 ± 1
318.15 K, x2 = 0.298	–	21.19 ± 0.67
318.15 K, x2 = 0.3877	–	16.11 ± 0.51
318.15 K, x2 = 0.4921	–	10.3 ± 0.34
318.15 K, x2 = 0.6009	–	6.945 ± 0.23
318.15 K, x2 = 0.7	–	4.498 ± 0.16
318.15 K, x2 = 0.8002	–	2.636 ± 0.1
318.15 K, x2 = 0.902	–	1.506 ± 0.069

Reference: the NIST ThermoML archive (doi:10.1021/je100687x)
